In US9738676B2, “Selected macrolides with PDE4-inhibiting activity” (Basilea Pharmaceutica AG, priority 2012, dated 2017):
Values after ≈ are worked out from the molar mass of the structure shown.

Legend:
[1] = tested on: M. catarrhalis QK34; test: MIC determination by broth microdilution; format: cell-based, Moraxella catharrhalis; settings: Moraxella catarrhalis, read-out: MIC (μg/ml) M. catarrhalis QK34
Method: (§1) All MIC values are determined by broth microdilution according to the guidelines by the Clinical and Laboratory Standards Institute (CLSI, Wayne Pa., USA). Staphylococcus aureus ATCC29213 is grown on Müller-Hinton agar (MHA) (Becton Dickinson) and then in cation-adjusted Müller Hinton broth (CaMHB) (Becton Dickinson) for 24 h at 37° C. Streptococcus pyogenes ATCC19615 and Moraxella catharrhalis QK34 are grown on MHA with 2.5% Laked Horse Blood (Oxoid). Liquid cultures in CaMHB+5% horse serum (Sigma) are incubated for 24 h at 35° C. in a 5% CO2 atmosphere. Haemophilus. influenzae 3168 is grown on MHA+2.5% Fildes extract (Oxoid). Liquid cultures are grown in CaMHB+5% Fildes extract at 35° C. in a 5% CO2 atmosphere. Propionibacteria are grown on Wilkins-Chalgren agar (WCA) (Oxoid) for 72 h under anaerobic conditions. Liquid cultures are grown anaerobically in Wilkins-Chalgren broth (WCB) (Oxoid) for 48 h at 35° C. MIC values are obtained by broth microdilution using WCB (Anaerobe Broth MIC, Difco). Microtitre plates are loaded into 7-L GENbox anaerobic incubation jars (BioMerieux) fitted with anaerobic atmosphere generators (BioMerieux) and a Dry Anaerobic Indicator Strip (BBL). Under these conditions, an O2 concentration <0.1% is achieved by 2.5 h, and a CO2 concentration >15% by 24 h.

[2] = biological target: PDE4 (U937); test: PDE4 enzyme inhibition, IMAP fluorescence polarization assay; format: biochemical, human; settings: for IC50: PDE4 partially purified from U937 cells
Method: PDE4 is partially purified from undifferentiated human monocytic cells (U937) according to Thorpy et al. 1992 (J. Pharmacol. Exp. Ther. 263: 1195). Cells are grown in Iscove's modified Dulbecco's medium (GIBCO) with 5% foetal bovine serum (GIBCO) and 100 μg/mL penicillin-streptomycin (GIBCO). Cells are broken by sonication and PDE4 is purified by anion-exchange chromatography on DEAE-Sepharose CL-6B (GE Healthcare). […] In addition, PDE4 preparations are validated by inhibition studies with PDE4-specific and unspecific PDE inhibitors.
PDEs specifically hydrolyze cAMP and/or cGMP and release the product AMP and/or GMP. The potency of PDE inhibition by test compounds is determined with a commercially available in vitro enzymatic assay (IMAP® Fluorescence Polarization assay, Molecular Devices Corp.). Fluorescently labeled cAMP or cGMP is hydrolyzed by PDE preparations and in a second step, binding of labeled product to a large binding partner allows product detection by fluorescence polarization (FP) measurements.
Stock solutions of the test compounds are made in DMSO and diluted in assay buffer (10 mM Tris-HCl, 10 mM MgCl2, 0.1% BSA 0.05% NaN3, pH 7.2) to the desired concentrations. The solutions used in the assay contain the test compound in assay buffer with 2% DMSO. 5 μl of this pre-diluted test compound solution are mixed with 10 μl of substrate (FL-cAMP or FL-cGMP) at concentrations recommended by the manufacturer and with 5 μl of appropriately diluted PDE. 5 μl of reaction buffer with 2% DMSO are used for control reactions. […] After incubation for 90 minutes at room temperature, 60 μl of binding reagent are added as specified by the manufacturer. Binding is allowed to proceed for 30 minutes and fluorescence polarization is measured. Dose dependence of PDE inhibition is measured by assaying dilution series of test compounds. IC50 values are determined from the measured activities by curve fitting.

[3] = tested on: P. acnes EG7NS; test: MIC determination by broth microdilution (anaerobic); format: cell-based, Propionibacterium acnes; settings: for MIC: Cutibacterium acnes, EG7NS, read-out: MIC (μg/ml) P. acnes EG7NS
Method: as §1

[4] = biological target: hERG channel (Homo sapiens (Human), UniProt Q12809); test: Blocking of hERG channel, whole-cell patch clamp in stably transfected HEK 293 cells; format: cell-based; settings: for Blocking of hERG @ 1 μM (% remaining tail current) / Blocking of hERG @ 10 μM (% remaining tail current): HEK 293 cells
Chain of hERG channel (Q12809 whole entry): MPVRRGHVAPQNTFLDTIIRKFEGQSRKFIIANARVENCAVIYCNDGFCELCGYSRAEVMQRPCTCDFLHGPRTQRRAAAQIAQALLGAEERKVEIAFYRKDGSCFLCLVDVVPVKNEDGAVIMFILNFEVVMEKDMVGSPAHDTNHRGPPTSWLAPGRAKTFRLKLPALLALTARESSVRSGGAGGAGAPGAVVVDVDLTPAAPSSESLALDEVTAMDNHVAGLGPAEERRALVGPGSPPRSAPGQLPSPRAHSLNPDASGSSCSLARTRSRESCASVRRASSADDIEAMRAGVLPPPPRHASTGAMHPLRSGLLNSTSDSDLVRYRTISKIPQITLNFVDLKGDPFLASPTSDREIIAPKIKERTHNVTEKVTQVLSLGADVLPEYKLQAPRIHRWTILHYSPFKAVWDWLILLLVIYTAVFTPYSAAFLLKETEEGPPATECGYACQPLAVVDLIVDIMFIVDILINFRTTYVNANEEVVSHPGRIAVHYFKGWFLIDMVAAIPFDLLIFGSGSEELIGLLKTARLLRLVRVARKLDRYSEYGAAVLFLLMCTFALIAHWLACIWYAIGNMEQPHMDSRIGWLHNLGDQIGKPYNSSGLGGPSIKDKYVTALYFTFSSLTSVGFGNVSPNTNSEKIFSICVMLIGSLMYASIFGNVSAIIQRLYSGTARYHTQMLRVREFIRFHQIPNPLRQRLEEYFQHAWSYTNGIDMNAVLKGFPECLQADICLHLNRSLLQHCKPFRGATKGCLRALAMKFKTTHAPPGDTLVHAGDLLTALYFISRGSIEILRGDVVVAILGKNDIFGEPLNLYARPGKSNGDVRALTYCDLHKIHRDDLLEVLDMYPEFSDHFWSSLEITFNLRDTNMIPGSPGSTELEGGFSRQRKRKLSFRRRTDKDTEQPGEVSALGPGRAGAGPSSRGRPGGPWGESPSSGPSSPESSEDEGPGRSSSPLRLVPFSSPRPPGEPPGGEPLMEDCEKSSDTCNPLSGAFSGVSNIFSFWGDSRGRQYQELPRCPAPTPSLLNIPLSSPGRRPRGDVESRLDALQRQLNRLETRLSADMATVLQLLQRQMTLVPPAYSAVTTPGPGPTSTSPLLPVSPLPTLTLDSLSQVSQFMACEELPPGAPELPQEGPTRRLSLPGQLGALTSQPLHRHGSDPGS

[5] = Oral bioavailability, pharmacokinetic study in mice; format: in vivo, mouse; settings: for bioavailability: in vivo, mouse, 10 mg/kg oral, 1 mg/kg intravenous, dose-normalized AUC, read-out: Oral bioavail. (mouse F %)
Method: Drug concentrations in blood or plasma are determined as a function of time in pharmacokinetic studies. Mice were treated with the test compound at defined doses. 10 mg/kg is used for oral administration and 1 mg/kg is taken for intravenous administration. Blood or plasma samples are collected at defined time-points and the drug content is determined by LC-MS/MS. The drug concentration is plotted as a function of time and the non-intravenous (oral) and the intravenous area under the curve (AUC) is calculated using the linear trapezoidal rule. The oral bioavailability is then calculated using dose-normalized AUC with the following formula: F[%]=AUCoral/AUCintravenous*100 Blocking of hERG Channel

[6] = tested on: P. granulosum EG13NS; test: MIC determination by broth microdilution (anaerobic); format: cell-based; settings: read-out: MIC (μg/ml) P. granulosum EG13NS
Method: as §1

[7] = tested on: S. aureus ATCC29213; test: MIC determination by broth microdilution; format: cell-based; settings: Staphylococcus aureus, read-out: MIC (μg/ml) S. aureus ATCC29213
Method: as §1

[8] = tested on: H. influenzae 3168; test: MIC determination by broth microdilution; format: cell-based; settings: Haemophilus influenzae, read-out: MIC (μg/ml) H. influenzae 3168
Method: as §1

[9] = tested on: S. pyogenes ATCC19615; test: MIC determination by broth microdilution; format: cell-based; settings: Streptococcus pyogenes, read-out: MIC (μg/ml) S. pyogenes ATCC19615
Method: as §1

[10] = tested on: bacteria; test: Antibacterial activity; format: cell-based
Method: as §1

Row | Compound | MIC [1] [µg/mL] | IC50 [2] [µM] | MIC [3] [µg/mL] | Blocking of hERG @ 1 μM (% remaining tail current) [4] [%] | Blocking of hERG @ 10 μM (% remaining tail current) [4] [%] | bioavailability [5] [%] | MIC [6] [µg/mL] | MIC [7] [µg/mL] | MIC [8] [µg/mL] | MIC [9] [µg/mL] | antibacterial activity (in words) [10] | activity against certain strains of Propionibacterium acnes (in words) [3] | hERG channel inhibiting activity (in words) [4] | oral bioavailability (in words) [5] | PDE4-inhibiting activity (in words) [2]
1 | CC[C@H]1OC(=O)[C@H](C)[C@@H](O[C@H]2C[C@@](C)(OC)[C@@H](O)[C@H](C)O2)[C@H](C)[C@@H](O[C@@H]2O[C@H](C)C[C@H](N(C)C(=O)N3CCOCC3)[C@H]2O)[C@](C)(OC)C[C@@H](C)C(=O)[C@H](C)[C@H]2[C@H](SCCN(Cc3c(Cl)cncc3Cl)c3ccc(OC)c(OC4CCCC4)c3)C(=O)O[C@@]21C | > 32 | 0.043 | > 32 | 99.2 | 82.9 | 1.5 | > 32 | > 32 | > 32 | > 32 |  |  |  |  | 
2 | CC[C@H]1OC(=O)[C@H](C)[C@@H](O)[C@H](C)[C@@H](O[C@@H]2O[C@H](C)C[C@H](N(C)C(=O)N3CCOCC3)[C@H]2O)[C@](C)(OC)C[C@@H](C)C(=O)[C@H](C)[C@H]2[C@H](SCCOc3cc(C(=O)Nc4c(Cl)cncc4Cl)ccc3OC)C(=O)O[C@@]21C | > 32 | 0.0001 | > 32 | 99.9 | 100 | 11.5 | > 32 | > 32 | > 32 | > 32 |  |  |  |  | 
3 | CC[C@H]1OC(=O)[C@H](C)[C@@H](O[C@H]2C[C@@](C)(OC)[C@@H](O)[C@H](C)O2)[C@H](C)[C@@H](O[C@@H]2O[C@H](C)C[C@H](N(C)C(=O)N3CCOCC3)[C@H]2O)[C@](C)(OC)C[C@@H](C)C(=O)[C@H](C)[C@H]2N(CCCOc3cc(C(=O)Nc4c(Cl)cncc4Cl)ccc3OC)C(=O)O[C@]12C [Example 2 of WO2001/018510] | > 32 | 0.876 | 2 (≈ 1.63 µM) | 99 | 84 | 16.2 | > 32 | > 32 | > 32 | > 32 | low against many bacterial strains | still very active | acceptable | moderate to good | 
4 | CC[C@H]1OC(=O)[C@H](C)[C@@H](O)[C@H](C)[C@@H](O[C@@H]2O[C@H](C)C[C@H](N(C)C(=O)N3CCOCC3)[C@H]2O)[C@](C)(OC)C[C@@H](C)C(=O)[C@H](C)[C@H]2C(SCCN(Cc3c(Cl)cncc3Cl)c3ccc(OC)c(OC4CCCC4)c3)C(=O)O[C@@]21C (stereo in doubt) [compound of formula (I)] | > 32 | 0.035 | > 32 | 99.9 | 98 | 22.8 | > 32 | > 32 | > 32 | > 32 | strongly reduced |  | does not inhibit | particularly good | excellent
5 | CC[C@H]1OC(=O)[C@H](C)[C@@H](O)[C@H](C)[C@@H](O[C@@H]2O[C@H](C)C[C@H](N(C)C)[C@H]2OC)[C@](C)(OC)C[C@@H](C)C(=O)[C@H](C)[C@H]2[C@H](SCCN(Cc3c(Cl)cncc3Cl)c3ccc(OC)c(OC4CCCC4)c3)C(=O)O[C@@]21C [Example 9 of WO2009/106419] | > 32 | 0.3 | 4 (≈ 3.8 µM) | 23.7 | 3.7 | 9 | 4 (≈ 3.8 µM) | 8 (≈ 7.6 µM) | > 32 | 32 (≈ 30.4 µM) | antibacterially inactive against many pathogenic types of bacteria |  | rather strong | moderate | good to moderate
6 | CC[C@H]1OC(=O)[C@H](C)[C@@H](O[C@H]2C[C@@](C)(OC)[C@@H](O)[C@H](C)O2)[C@H](C)[C@@H](O[C@@H]2O[C@H](C)C[C@H](N(C)C(C)=O)[C@H]2O)[C@](C)(OC)C[C@@H](C)C(=O)[C@H](C)[C@H]2[C@H](SCCN(Cc3c(Cl)cncc3Cl)c3ccc(OC)c(OC4CCCC4)c3)C(=O)O[C@@]21C [Example 10 of WO2009/106419] | 8 (≈ 6.53 µM) | 0.031 | 4 (≈ 3.26 µM) | 95.9 | 85.5 | 25.5 | 2 (≈ 1.63 µM) | > 32 | 32 (≈ 26.1 µM) | 8 (≈ 6.53 µM) | strong remaining antibacterial activity against certain types of bacteria |  |  | particularly good | excellent
7 | CC[C@H]1OC(=O)[C@H](C)[C@@H](O[C@H]2C[C@@](C)(OC)[C@@H](O)[C@H](C)O2)[C@H](C)[C@@H](O[C@@H]2O[C@H](C)C[C@H](N(C)C(=O)N3CCOCC3)[C@H]2O)[C@](C)(OC)C[C@@H](C)C(=O)[C@H](C)[C@H]2[C@H](SCCOc3cc(C(=O)Nc4c(Cl)cncc4Cl)ccc3OC)C(=O)O[C@@]21C [Example 15 WO2009/106419] | > 32 | 0.071 | > 32 | 100 | 98.6 | 4.6 | > 32 | > 32 | > 32 | > 32 | strongly reduced |  |  | rather low | excellent
